Laboratory results: patent publication US20070197452A1, “Treatment of amyloid-related diseases” (priority 2006, published 2007)
Entries after “also recorded” stand apart in the source; their conditions may differ. Marks after values point to notes of the source that are not given here.

Assays:
Format in all cases: in vivo, mouse
Aβ40 = target: T1, Aβ40 (Homo sapiens, UniProt P05067); test: Cerebral Aβ40 content of hemi-brain homogenates (commercial kit); conditions: for brain Aβ40 levels: TgCRND8 mice with pre-existing disease, 28 days from 5 months of age
T1 construct: analyzed for Aβ40 and Aβ42 using commercially available kits; from tissue; host or cells: hemi-brain homogenates of TgCRND8 transgenic mice
T1 sequence (P05067 672-711 limits assumed): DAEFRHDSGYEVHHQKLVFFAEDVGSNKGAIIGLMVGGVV
Description: Plasma and Cerebral Aβ Content. Hemi-brain samples were homogenized in a buffered sucrose solution, followed by either 0.4% diethylamine/100 mM NaCl for soluble Aβ levels or cold formic acid for the isolation of total Aβ. After neutralization, the samples were diluted and analyzed for Aβ40 and Aβ42 using commercially available kits (BIOSOURCE International). Each hemisphere was analyzed in triplicate and the mean values±SEM reported. Western blot analyses were performed on all fractions using urea gels for Aβ species analyses. Aβ was detected using 6E10 (BIOSOURCE International) and Enhanced Chemiluminenscence (Amersham).
Plasma and cerebral Aβ content. Hemi-brain samples were homogenized in a buffered sucrose solution, followed by either a mixture of 0.4% diethylamine and 100 mM NaCl for soluble Aβ levels or cold formic acid for the isolation of total Aβ. After neutralization, samples were diluted and analyzed for Aβ40 and Aβ42 using commercially available kits (Biosource International). Each hemisphere was analyzed in triplicate and the mean±s.e.m. was reported. Western blot analyses were carried out on all fractions using urea gels for Aβ species analyses. Aβ was detected using 6E10 (Biosource International).

TgCRND8 mice [1] = test: Cerebral amyloid plaque burden (anti-Aβ immunostaining, image analysis); conditions: for amyloid burden in hippocampus and cerebral cortex: TgCRND8 mice at six months of age
Description: Cerebral amyloid burden. […] To generate sets of systematic uniform random sections, 5 μm serial sections were collected across the entire hemisphere. Sets of sections at 50 μm intervals were used for analyses (10-14 sections/set). Plaques were identified after antigen retrieval with formic acid, and incubation with primary anti-Aβ antibody (Dako M-0872), followed by secondary antibody (Dako StreptABCcomplex/horseradish kit). End products were visualized with DAB and were counter-stained with luxol fast blue. Amyloid plaque burden was assessed with Leco IA-3001 image analysis software interfaced with Leica microscope and Hitachi KP-M1U CCD video camera. Openlab imaging software (Improvision, Lexington, Mass.) was then used to convert micrographs to binary images for plaque number and plaque area determinations. Vascular amyloid burden was defined as amyloid originating from or surrounding blood vessels and was analysed similarly. Cerebral Aβ burden. […] Sets of sections at […] intervals for analyses (10-14 sections per set) were used. Plaques with primary Aβ-specific antibody (Dako M-0872) were identified and visualized with DAB. AP plaque burden was assessed with Openlab imaging software (Improvision) and used to convert micrographs to binary images for determinations of plaque number and plaque area. Vascular Aβ burden was defined as Aβ plaques originating from or surrounding blood vessels and was analyzed similarly. Cerebral Aβ burden. […] To generate sets of systematic uniform random sections, 5 μm serial sections were collected across the entire hemisphere. Sets of sections at 50 μm intervals were used for analyses (10-14 sections/set). Plaques were identified after antigen retrieval with formic acid, and incubation with primary anti-Aβ antibody (Dako M-0872), followed by secondary antibody (Dako StreptABCcomplex/horseradish kit). End products were visualized with DAB and were counter-stained with luxol fast blue. Aβ plaque burden was assessed with Leco IA-3001 image analysis software interfaced with Leica microscope and Hitachi KP-M1U CCD video camera. Openlab imaging software (Improvision, Lexington, Mass.) was then used to convert micrographs to binary images for plaque number and plaque area determinations. Vascular Aβ burden was defined as Aβ plaques originating from or surrounding blood vessels and was analyzed similarly.

TgCRND8 mice [2] = test: Gliosis quantitation (GFAP astrocytes, CD68 microglia); conditions: prophylactic treatment; for astrogliosis (percent brain area covered): 4 and 6 months of age; for microgliosis / microglial activation (percent brain area covered): 6 months of age
Description: Gliosis Quantitation. Five randomly selected, evenly spaced, sagittal sections were collected from paraformaldehyde-fixed and frozen hemispheres of treated and control mice. Sections were immunolabelled for astrocytes with anti-rat GFAβ IgG2a (Dako; diluted 1:50) and for microglia with anti-rat CD68 IgG2b (Dako; 1:50). Digital images were captured using a Coolsnap digital camera (Photometrics, Tuscon, Ariz.) mounted to a Zeiss, Axioscope 2 Plus microscope. Images were analysed using Openlab 3.08 imaging software (Improvision, Lexington Mass.). Quantification of gliosis. Five randomly selected, evenly spaced sagittal sections from paraformaldehyde-fixed and frozen hemispheres of treated and control mice were collected. Sections were immunolabeled for astrocytes with an antibody against rat GFAβ IgG2a (Dako; diluted 1:50) and for microglia with an antibody to rat CD68 IgG2b (Dako; 1:50). Digital images were captured using a Coolsnap digital camera (Photometrics) mounted to a Zeiss, Axioscope 2 Plus microscope. Images were analyzed using Openlab 3.08 imaging software (Improvision).

TgCRND8 mice [3] = test: Survival census (Kaplan-Meier); conditions: prophylactic treatment, vs untreated, n=35 per group
Description: (§1) Survival Census: The probability of survival was assessed by the Kaplan-Meier technique, computing the probability of survival at every occurrence of death, thus making it suitable for small sample sizes. For the analyses of survival, 35 mice were used for each treatment group. The Tarone-Ware test was used to assess effects of treatments.
as §1, with “census.” for “Census:”, “using” for “by”

[4] = 1 month Treatment: TgCRND8 mice, oral from 5 to 6 months of age
[5] = 4-month Prophylactic: TgCRND8 mice, oral from 6 weeks to 4 months of age
[6] = 6-month Prophylactic: TgCRND8 mice, oral from 6 weeks to 6 months of age
[7] = TgCRND8 mice with pre-existing disease, 28 days from 5 months of age
[8] = TgCRND8 mice, oral, 28 days from 5 months of age, analysed at 6 months, listed as Epi-cyclohexanchexol
[9] = TgCRND8 mice, prophylactic, 6 months of age
[10] = TgCRND8 mice, 28 day course at 5 months of age, vs untreated
[11] = TgCRND8 mice, oral, 28 days from 5 months of age, analysed at 6 months

OC1C(O)C(O)C(O)C(O)C1O (stereo not drawn) [epi-cyclohexanehexol, 1,2,3,4,5/6-(epi-) cyclohexanehexol, reference compound]
brain Aβ40 levels (Aβ40): no significant impact; also recorded: no significant effect
reduction of brain Aβ40 (range given for both Aβ40 and Aβ42) (Aβ40; TgCRND8 mice, prophylactic treatment, 4 months of age): 22-62 % reduction
Mean Plaque Size (μm^2) (TgCRND8 mice [1]; [4]): 346 ± 6 μm^2
Total Plaque Area (μm^2) (TgCRND8 mice [1]; [4]): 459706 ± 49966 μm^2
Mean Plaque Size (μm^2) (TgCRND8 mice [1]; [5]): 95 ± 43 μm^2
Total Plaque Area (μm^2) (TgCRND8 mice [1]; [5]): 65042 ± 5199 μm^2
Mean Plaque Size (μm^2) (TgCRND8 mice [1]; [6]): 370 ± 9 μm^2
Total Plaque Area (μm^2) (TgCRND8 mice [1]; [6]): 380456 ± 13498 μm^2
amyloid burden in hippocampus and cerebral cortex (TgCRND8 mice [1]): modest effect on amyloid burden
amyloid burden in hippocampus and cerebral cortex (TgCRND8 mice [1]; listed as AZD-102): modest effect on amyloid burden
percent area of the brain covered with plaques (TgCRND8 mice [1]; [7]): no significant impact; also recorded: no significant effect
plaque number (TgCRND8 mice [1]; [7]): no significant impact; also recorded: no significant effect
Mean Plaque Size (μm^2) (TgCRND8 mice [1]; [8]): 346 ± 6 μm^2
Total Plaque Area (μm^2) (TgCRND8 mice [1]; [8]): 459706 ± 49966 μm^2
Total Plaque Count (TgCRND8 mice [1]; [8]): 1342 ± 114
mean plaque size (TgCRND8 mice [1]; TgCRND8 mice, prophylactic, 4 months of age): significant decrease in mean plaque size
mean plaque size (TgCRND8 mice [1]; [9]): reductions were not sustained
astrogliosis (percent brain area covered) (TgCRND8 mice [2]): decreased the percent brain area covered in astrogliosis
astrogliosis (percent brain area covered) (TgCRND8 mice [2]; listed as AZD-102): decreased the percent brain area covered in astrogliosis; also recorded: decrease in astrogliosis
astrogliosis (percent brain area covered) (TgCRND8 mice [2]; listed as Epi-cyclohexanehexol): decreased the astrogliotic response; also recorded: decrease in astrogliosis
microgliosis / microglial activation (percent brain area covered) (TgCRND8 mice [2]): decreased the percent brain area covered with microgliosis
microgliosis / microglial activation (percent brain area covered) (TgCRND8 mice [2]; listed as AZD-102): decreased the percent brain area covered with microgliosis
microgliosis / microglial activation (percent brain area covered) (TgCRND8 mice [2]; listed as Epi-cyclohexanehexol): no effect on microglial activation
survival (Kaplan-Meier cumulative survival) (TgCRND8 mice [3]; listed as AZD-102): did not significantly improve survival
survival (Kaplan-Meier cumulative survival) (TgCRND8 mice [3]; listed as Epi-cyclohexanehexol): did not significantly improve survival

OC1C(O)C(O)C(O)C(O)C1O (stereo not shown) [scyllo-cyclohexanehexol, 1,3,5/2,4,6-(scyllo-) cyclohexanehexol]
brain Aβ40 levels (Aβ40): reduced levels
Mean Plaque Size (μm^2) (TgCRND8 mice [1]; [4]): 336 ± 6* μm^2
Total Plaque Area (μm^2) (TgCRND8 mice [1]; [4]): 420027 ± 14986* μm^2
Mean Plaque Size (μm^2) (TgCRND8 mice [1]; [5]): 103 ± 4* μm^2
Total Plaque Area (μm^2) (TgCRND8 mice [1]; [5]): 63847 ± 2895 μm^2
Mean Plaque Size (μm^2) (TgCRND8 mice [1]; [6]): 339 ± 10† μm^2
Total Plaque Area (μm^2) (TgCRND8 mice [1]; [6]): 262379 ± 5373† μm^2
amyloid burden in hippocampus and cerebral cortex (TgCRND8 mice [1]): significantly decreased amyloid burden
amyloid burden in hippocampus and cerebral cortex (TgCRND8 mice [1]; listed as AZD-103): significantly decreased amyloid burden
effect on pathology (TgCRND8 mice [1]; TgCRND8 mice treated for 2 months, ending at 7 months of age): Sustained effects
percent area of the brain covered with plaques (TgCRND8 mice [1]; [7]): significantly reduced
plaque number (TgCRND8 mice [1]; [7]): significantly reduced
plaque size (TgCRND8 mice [1]; [7]): significantly reduced
plaque count, dose-response (TgCRND8 mice [1]; TgCRND8 mice, 0.3-30 mg/kg/d orally, 4 months of age, 6F3D immunostaining): dose-dependent decrease; also recorded: improvement
percent area of the brain covered by plaques, reduction (TgCRND8 mice [1]; [10]): 14±0.5 % reduction
plaque number reduction (TgCRND8 mice [1]; [10]): 13±0.3 % reduction
plaque size reduction (TgCRND8 mice [1]; [10]): 16±0.4 % reduction
plaque burden in hippocampus (TgCRND8 mice [1]; TgCRND8 mice, one month of treatment from 5 months of age): lower plaque burden
Mean Plaque Size (μm^2) (TgCRND8 mice [1]; [11]): 336 ± 6* μm^2
Total Plaque Area (μm^2) (TgCRND8 mice [1]; [11]): 420027 ± 14986* μm^2
Total Plaque Count (TgCRND8 mice [1]; [11]): 1260 ± 27
mean plaque size (TgCRND8 mice [1]; [9]): smaller mean plaque size
all measures of plaque burden (TgCRND8 mice [1]; TgCRND8 mice, prophylactic, at 4 and 6 months of age): sustained decrease in all measures of plaque burden
astrogliosis (percent brain area covered) (TgCRND8 mice [2]): decreased astrogliosis much more efficiently
astrogliosis (percent brain area covered) (TgCRND8 mice [2]; listed as AZD-103): decreased the astrogliotic response to a greater extent; also recorded: significantly decreased
astrogliosis (percent brain area covered) (TgCRND8 mice [2]; listed as Scyllo-cyclohexanehexol): decreased the astrogliotic response to a greater extent than epi-cyclohexanehexol; also recorded: significantly decreased
microgliosis / microglial activation (percent brain area covered) (TgCRND8 mice [2]): attenuated microglial activation; also recorded: decreased the percent brain area covered with microgliosis
microgliosis / microglial activation (percent brain area covered) (TgCRND8 mice [2]; listed as AZD-103): decreased the percent brain area covered with microgliosis
survival (Kaplan-Meier cumulative survival) (TgCRND8 mice [3]): accelerated mortality was reversed; also recorded: increased survival
survival (Kaplan-Meier cumulative survival) (TgCRND8 mice [3]; listed as AZD-103): increased survival
